Measurements reported in patent US20230041996A1, “CALCIUM-SENSING RECEPTOR AGONIST COMPOUND AND APPLICATION THEREOF” (BEIJING TUO JIE BIOPHARMACEUTICAL CO. LTD., priority 2019, published 2023).
pEC50: −log10 of the molar value. Like-named read-outs stand apart in the source and are kept apart here. Square brackets hold non-standard residues; d marks the D form. Peptide text beside a SMILES is read from it. * marks the point of attachment. Cys(free,S-linked) = N[C@@H](CS*)C(=O)O; d2Thi = N[C@H](Cc1cccs1)C(=O)O; dAbu = CC[C@@H](N)C(=O)O

Columns and labels:
Type in all cases: cell-based
[1] = biological target: T1, human calcium-sensing receptor (CaSR) (Homo sapiens, UniProt P41180); assay: Agonist activity on human calcium-sensing receptor (IP-One HTRF in stably transfected HEK293/CaSR cells)
T1 construct: host or cells: HEK293
T1 sequence (P41180 20-1078): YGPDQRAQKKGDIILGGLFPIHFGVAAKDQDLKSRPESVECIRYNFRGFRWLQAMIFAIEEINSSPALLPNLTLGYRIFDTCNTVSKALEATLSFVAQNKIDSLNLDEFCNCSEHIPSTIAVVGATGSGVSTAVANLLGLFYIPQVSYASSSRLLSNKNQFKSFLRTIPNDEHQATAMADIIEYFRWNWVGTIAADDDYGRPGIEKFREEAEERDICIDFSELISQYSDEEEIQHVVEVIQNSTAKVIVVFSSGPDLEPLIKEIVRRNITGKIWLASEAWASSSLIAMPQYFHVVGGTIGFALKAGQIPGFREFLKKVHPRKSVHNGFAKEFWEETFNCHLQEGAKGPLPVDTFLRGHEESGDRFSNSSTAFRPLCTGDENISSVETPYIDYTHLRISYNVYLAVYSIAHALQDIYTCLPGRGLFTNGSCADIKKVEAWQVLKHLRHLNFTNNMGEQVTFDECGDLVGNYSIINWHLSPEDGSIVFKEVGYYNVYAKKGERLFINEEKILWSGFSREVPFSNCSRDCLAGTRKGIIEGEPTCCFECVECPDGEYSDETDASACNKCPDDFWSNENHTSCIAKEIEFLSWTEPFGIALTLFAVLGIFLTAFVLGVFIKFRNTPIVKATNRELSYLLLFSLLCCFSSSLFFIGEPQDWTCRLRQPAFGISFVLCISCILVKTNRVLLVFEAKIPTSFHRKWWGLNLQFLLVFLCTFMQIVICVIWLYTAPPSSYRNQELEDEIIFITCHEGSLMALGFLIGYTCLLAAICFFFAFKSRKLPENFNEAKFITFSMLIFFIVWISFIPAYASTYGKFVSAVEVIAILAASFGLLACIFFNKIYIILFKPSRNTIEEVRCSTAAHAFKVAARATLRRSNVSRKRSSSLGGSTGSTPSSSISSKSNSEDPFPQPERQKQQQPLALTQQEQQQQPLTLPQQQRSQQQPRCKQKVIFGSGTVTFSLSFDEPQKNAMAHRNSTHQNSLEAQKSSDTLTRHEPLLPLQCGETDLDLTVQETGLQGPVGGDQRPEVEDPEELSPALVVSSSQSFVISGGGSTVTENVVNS
Procedure, shortened: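 HEK293 cells stably expressing CaSR stimulated 60 min at 37 °C with compounds in buffer containing 1.2 mM CaCl2, 0.5 mM MgCl2 and 50 mM LiCl. IP-One accumulation measured by HTRF (665/620 nm ratio); EC50 from four-parameter fit.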

[2] = tested on: rat peritoneal mast cells; assay: In vitro histamine release in rat peritoneal mast cells (histamine ELISA); conditions: for Relative fold of histamine release in vitro: test compound final concentration 10 μM, 15 min at 37° C., relative to PBS buffer (1.00); for histamine release levels in rat peritoneal mast cells in vitro relative to etelcalcetide: 10 μM, comparison with etelcalcetide
Procedure, shortened: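 Rat peritoneal mast cells, washed into HBSS + 25 mM HEPES + 1 mM CaCl2 (pH 7.4), were exposed to test compounds at 10 μM final, 48/80 at 4 μg/mL or vehicle for 15 min at 37° C. Histamine released into the supernatant was quantified by ELISA.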

[3] = tested on: human red blood cells; assay: Hemolytic effect on human red blood cells in vitro (absorbance at 540 nm); conditions: 100 μg/mL in PBS, 37° C., 1 h, FIG. 1
Protocol: To evaluate the hemolytic effect of the compounds disclosed herein on red blood cells in vitro, human whole blood (100 μL) was taken and mixed with a phosphate buffer. The mixture was centrifuged at 4° C. for 10 min and the supernatant was discarded. The red blood cells were resuspended in PBS buffer (900 μL) and centrifuged at 4° C. for 10 min with the supernatant discarded, and the procedures above were repeated once. The test example compounds were dissolved in 1×PBS buffer to a final concentration of 100 μg/mL. The red blood cells were resuspended in solutions of various test example compounds, an octylphenoxy poly(ethyleneoxy)ethanol-100 solution or PBS buffer, and incubated at 37° C. for 1 h. After incubation, the cells were centrifuged at 4° C. for 10 min and the supernatant (100 μL) was pipetted and transferred to a 96-well plate. The absorbance at 540 nm was detected for evaluating the hemolytic effect of the test example compounds on red blood cells in vitro.

[4] = HEK293/CaSR cells, IP-One production, 60 min at 37° C., CaCl2 1.2 mM, read-out: EC50 for calcium-sensing receptor

Structure (SMILES)	pEC50 [1, 4]	Relative fold of histamine release in vitro [2]	hemolytic effect on red blood cells [3]	pEC50 [1]	histamine release levels in rat peritoneal mast cells in vitro relative to etelcalcetide [2]
CC(=O)N[C@H](CSSC[C@H](N)C(=O)O)C(=O)N[C@H](CCCNC(=N)N)C(=O)N[C@H](CCCNC(=N)N)C(=O)N[C@H](Cc1cccs1)C(=O)N[C@H](CCCNC(=N)N)C(=O)N[C@H](C)C(=O)N[C@H](CCCNC(=N)N)C(N)=O [Compound 13, Ac-c(C)-r-r-(D-2-Thi)-r-a-r-NH2] (Ac-[dC](Cys(free,S-linked))[dR][dR][d2Thi][dR][dA][dR]-NH2)	5.92	2.38	no significant hemolytic effect		
CC[C@@H](NC(=O)[C@@H](CCCNC(=N)N)NC(=O)[C@@H](CCCNC(=N)N)NC(=O)[C@@H](CSSC[C@H](N)C(=O)O)NC(C)=O)C(=O)N[C@H](CCCNC(=N)N)C(=O)N[C@H](C)C(=O)N[C@H](CCCNC(=N)N)C(N)=O [Compound 17, Ac-c(C)-r-r-(D-Abu)-r-a-r-NH2] (Ac-[dC](Cys(free,S-linked))[dR][dR][dAbu][dR][dA][dR]-NH2)		0.97	no significant hemolytic effect	5.20	reduction in histamine release levels
CC[C@@H](NC(=O)[C@@H](CCCNC(=N)N)NC(=O)[C@@H](CCCNC(=N)N)NC(=O)[C@@H](CSSC[C@H](N)C(=O)O)NC(C)=O)C(=O)N[C@H](CCCNC(=N)N)C(=O)N[C@H](CO)C(=O)N[C@H](CCCNC(=N)N)C(N)=O [Compound 31, Ac-c(C)-r-r-(D-Abu)-r-s-r-NH2] (Ac-[dC](Cys(free,S-linked))[dR][dR][dAbu][dR][dS][dR]-NH2)	5.23	1.29	no significant hemolytic effect		reduction in histamine release levels
